{"source": "paper PMC7988117", "about": "“OMN6 a novel bioengineered peptide for the treatment of multidrug resistant Gram negative bacteria” (Scientific Reports, 2021)", "key": {"[1]": {"test_system": "E. coli GFPuv", "format": "cell-based, Escherichia coli", "protocol": "E. coli GFPuv bacteria (contribution from Dr. Tsafi Danieli, head of the Protein Expression Facility at the Hebrew University of Jerusalem, Israel) were grown in LB broth (BD) and induced to express the Green Fluorescent Protein (GFP) in auto-induction medium, as previously described by F.W. Studier[31]. Briefly, bacteria were cultured for 3 h at 37 °C while shaking at 200 rpm, in induction medium ZYP-5052 containing 1% N-Z amine AS, 0.5% yeast extract, 50 mM Na2HPO4, 50 mM KH2HPO4, 25 mM (NH4)2SO4, 2 mM MgSO4, 0.5% glycerol, 0.05% glucose and 0.2% lactose. For the bacterium visualization experiment, 2 × 10^6 colony-forming units (CFU) were treated by 16 µg/mL OMN6 or Double-Distilled Water (DDW) for 60 min. Bacteria were monitored with a confocal microscope at a wavelength of 488 nm. Then, bacteria were seeded on LB agar (BD) plates, incubated at 37 °C for 24 h, and CFU were counted. For the supernatant visualization and quantification experiment, 10^5 CFU were co-incubated with 50 µM OMN6 or DDW for 30 min, and bacteria were collected and centrifuged at 5000 rpm for 10 min. Experiment tubes were visualized under UV light. Then, supernatants were collected, and the absence of a significant quantity of bacteria in the supernatants was checked in a microplate reader by absorbance at 600 nm (OD < 0.05). Fluorescence levels were then quantified with excitation at 395 nm and emission at 509 nm."}, "[2]": {"test_system": "Acinetobacter baumannii clinical isolates", "assay": "Time-kill studies", "format": "cell-based", "protocol": "Time-kill experiments were performed by JMI Laboratories (North Liberty, IA, USA) as described in chapter 5.14 of the Clinical Microbiology Procedures Handbook[32] and the CLSI M26-A[33] document. Two Acinetobacter baumannii clinical isolates (JMI colistin-sensitive strain #1088100 and colistin-resistant strain #1001007) were used for this study. MIC values that were determined in Difco Muller Hinton Broth (BD) for OMN6 and colistin as described above, were used as the baseline values during time-kill testing. In the time-kill experiments, OMN6 and colistin were tested in Difco Muller Hinton Broth. The time-kill cultures were sampled at 0, 2, 4, 8, and 24 h after compound addition. The number of CFU/mL in each culture was measured by plating 100 μL of serial dilutions onto blood agar plates. Colonies were counted after 48 h of growth at 35 °C. Time-kill curves were generated by plotting CFU/mL as log10 values over time. The limit of detection was 10 CFU/mL. Bactericidal activity was defined as a ≥ 99.9% reduction (i.e., a ≥ 3 log10 decrease) in the number of input bacterial cells at any arbitrary timepoint."}, "[3]": {"test_system": "Acinetobacter baumannii", "settings": "for MIC: CLSI broth microdilution, Muller-Hinton broth, 18–24 h, 35 ± 2 °C", "protocol": "This experiment was conducted by Omnix Medical, by JMI Laboratories (North Liberty, IA, USA) and by Aptuit (Verona) S.r.l. (Italy), an Evotec Company. All studies were performed according to Clinical and Laboratory Standards Institute guidelines[30] for the application of the broth microdilution method. Reference strains from American Type Culture Collection (ATCC) and clinical isolates from the Evotec EvostrAIn and the JMI Laboratories SENTRY surveillance program culture collections (Acinetobacter baumannii: ACC 00445, ACC 00527, ACC 00535, ATCC 17978, ATCC 19606, ATCC BAA-1793, ACC 01076, ACC 01077, NCTC 13420, JMI #1088100 and JMI #1001007; Klebsiella pneumoniae: ATCC 43816 and ATCC BAA-1705; Escherichia coli: ACC 01001 and ATCC 25922; Staphylococcus aureus: ATCC 29213, ATCC BAA-44 and ATCC 33591; Bacillus cereus: ATCC 14579; Enterococcus faecalis: ATCC 29212; Enterococcus faecium: ATCC BAA-2319) were used. The antimicrobial activity of OMN6 was determined by 12 serial two-fold dilutions in water of the 100-fold highest compound solution; 1 µL of each well was transferred into 96 microtiter plates (final concentration: 256–0.12 µg/mL). In most strains, same procedure was used to determine the colistin antimicrobial activity (final concentration: 32–0.015 µg/mL). Bacterial strains were sub-cultured on the agar plates and incubated for 18–24 h at 35 ± 2 °C in ambient air. Following incubation, the inoculum was prepared from isolated colonies and adjusted to 0.5 McFarland turbidity standard (1 to 2 × 10^8 colony-forming units/mL) in 0.9% saline. Bacterial suspension was then diluted 1:200 in Muller-Hinton broth (from BD; Becton, Dickinson and Company, Franklin Lakes, NJ, USA) and within 15 min 100 µL/well were dispensed. Growth-control wells and sterility-check wells (uninoculated well) were present in each plate. Plates were incubated for 18–24 h at 35 ± 2 °C in ambient air. […] The antimicrobial activity to other antibiotics on most bacterial strains was determined by Evotec using the antimicrobial sensitive test from the VITEK 2 automated microbiology system (bioMérieux SA, Marcy l'Etoile, France; data presented in Table S1), or by ATCC according to CLSI (Clinical and Laboratory Standards Institute) guidelines[30]"}}, "note": "Read-outs that look alike come from different tables or passages of the source. Bridge positions count the residues as written; N and C are the ends. Peptide text beside a SMILES is read from it.", "data": [{"smiles": "CC[C@H](C)[C@@H]1NC(=O)CNC(=O)[C@H](CC(=O)O)NC(=O)[C@H](CCCNC(=N)N)NC(=O)[C@H]([C@@H](C)CC)NC(=O)[C@H](CC(N)=O)NC(=O)[C@H](CCC(N)=O)NC(=O)CNC(=O)[C@H](C(C)C)NC(=O)[C@H](CCCCN)NC(=O)[C@H](CCC(=O)O)NC(=O)[C@H]([C@@H](C)CC)NC(=O)[C@H](CCCCN)NC(=O)[C@H](CCCCN)NC(=O)[C@H](Cc2ccccc2)NC(=O)[C@H](CC(C)C)NC(=O)[C@H](CCCCN)NC(=O)[C@H](Cc2c[nH]c3ccccc23)NC(=O)[C@H](CCCCN)NC(=O)[C@@H](NC(=O)[C@@H](N)CCSC)CSSC[C@@H](C(N)=O)NC(=O)[C@H](CCCCN)NC(=O)[C@H](C)NC(=O)[C@H]([C@@H](C)CC)NC(=O)[C@H](CCC(N)=O)NC(=O)[C@H]([C@@H](C)O)NC(=O)[C@H](C)NC(=O)[C@H](CCC(N)=O)NC(=O)CNC(=O)[C@H](C(C)C)NC(=O)[C@H](C(C)C)NC(=O)[C@H](C)NC(=O)[C@H](C(C)C)NC(=O)[C@H](C)NC(=O)[C@@H]2CCCN2C(=O)CNC(=O)[C@H](C)NC(=O)[C@H](CCCCN)NC(=O)[C@H]([C@@H](C)CC)NC1=O", "note": "[OMN6] (H-MCKWKLFKKIEKVGQNIRDGIIKAGPAVAVVGQATQIAKC-NH2; disulfide 2-40; N-terminus assumed)", "values": [{"measurement": "Reduction in fluorescence arbitrary units (FU) of a bacterium, T = 0 h to T = 1 h (GFP leakage)", "setting": "[1]; 16 µg/mL, 60 min, confocal microscope 488 nm, single bacterium", "value": "12,000 FU"}, {"measurement": "CFU on agar plates after treatment (bacterial death)", "setting": "[1]; 2 × 10^6 CFU, 16 µg/mL, 60 min, then LB agar 37 °C 24 h, data not shown", "value": "No CFU"}, {"measurement": "Level of fluorescence (FU) in supernatants vs DDW control", "setting": "[1]; E. coli GFPuv 10^5 CFU, 50 µM, 30 min, centrifuged 5000 rpm, excitation 395 nm, emission 509 nm, p = 0.01", "value": "distinct increase"}, {"measurement": "Bactericidal pattern on colistin-resistant strain", "setting": "[2]; colistin-resistant A. baumannii JMI #1001007, similar timeframe and concentrations as on the colistin-sensitive strain", "value": "retained its bactericidal pattern"}, {"measurement": "Concentrations with bactericidal effect after 2 h of incubation", "setting": "[2]; colistin-sensitive A. baumannii JMI #1088100, Difco Muller Hinton Broth, bactericidal = ≥ 3 log10 decrease", "value": "> 8", "unit": "µg/mL"}, {"measurement": "Re-growth during the 24 h timeframe", "setting": "[2]; colistin-sensitive A. baumannii JMI #1088100, Difco Muller Hinton Broth, sampled 0, 2, 4, 8, 24 h", "value": "No re-growth"}, {"measurement": "MIC", "setting": "[3]; A. baumannii ACC 00445 (MDR/Col-S)", "value": 4, "unit": "µg/mL"}, {"measurement": "MIC", "setting": "[3]; A. baumannii ACC 00527 (MDR/Col-R)", "value": 4, "unit": "µg/mL"}, {"measurement": "MIC", "setting": "[3]; A. baumannii ACC 00535 (MDR/Col-S)", "value": 4, "unit": "µg/mL"}, {"measurement": "MIC", "setting": "[3]; A. baumannii ACC 01076 (MDR/Col-R)", "value": 8, "unit": "µg/mL"}, {"measurement": "MIC", "setting": "[3]; A. baumannii ACC 01077 (MDR/Col-R)", "value": 4, "unit": "µg/mL"}, {"measurement": "MIC", "setting": "[3]; A. baumannii ATCC 17978 (S)", "value": 8, "unit": "µg/mL"}, {"measurement": "MIC", "setting": "[3]; A. baumannii ATCC 19606 (S)", "value": 8, "unit": "µg/mL"}, {"measurement": "MIC", "setting": "[3]; A. baumannii ATCC BAA-1793 (MDR)", "value": 8, "unit": "µg/mL"}, {"measurement": "MICs of the A. baumannii strains", "setting": "[3]; summary of Table 1, sensitive and multidrug resistant strains", "value": "4 to 8", "unit": "µg/mL"}]}]}
